Consider 5 substances from publication PMC3401907, “Cellular Uptakes, Biostabilities and Anti-miR-210 Activities of Chiral Arginine-PNAs in Leukaemic K562 Cells” (Chembiochem, 2012).

Data set [1] deals with K562 cells. Description: Cellular uptake of fluorescein-labelled PNAs by FACS analysis. It counts as cell-based, human. The settings on record: 24 h incubation; for change of cellular uptake in the presence of serum: medium with serum vs serum-free, FACS. As for the experimental part:
We therefore studied the uptake of backbone-modified PNAs in the same cellular model and compared the obtained results with those observed in the study of PNA1 and PNA2. K562 cells were incubated in the presence of increasing concentrations of fluorescein-labelled PNAs (PNA1–6-Fl) for 24 and 48 h and analysed by fluorescence-activated cell sorting analysis (FACS), giving the results shown in Figure 3. Because different PNA structures could be affected by proteases present in serum, leading to different cellular uptakes, these experiments were conducted both in the presence and in the absence of serum.
Human cell lines and culture conditions: Human leukaemia K562 cells were cultured under humidified CO2 (5 %)/air in RPMI 1640 medium (Sigma) supplemented with foetal bovine serum (FBS, 10 %, Analitical de Mori, Milan, Italy), penicillin (50 units mL^−1) and streptomycin (50 μg mL^−1).[26] Mithramycin (MTH) was from Sigma. Stock solutions of MTH (100 μM) were stored at −20 °C in the dark and diluted immediately before use. Treatment of K562 cells with MTH was carried out by addition of the appropriate drug concentrations at the beginning of the cultures (cells were seeded at 30 000 mL^−1). The medium was not changed during the induction period. To determine antiproliferative activity, cell growth was studied by determining the cell number per mL with a Z1 Coulter Counter (Coulter Electronics, Hialeah, FL, USA). Erythroid differentiated K562 cells containing haemoglobin were detected by specific reaction with a benzidine/hydrogen peroxide solution as reported elsewhere.[26] The final concentration of benzidine was 0.2 % in glacial acetic acid (5 M) and H2O2 (10 %).
(§1) FACS analysis: For determination of fluorescence intensity by FACScan (Becton Dickinson, Franklin Lakes, NJ, USA), cells (either in medium supplemented with serum or under serum-free conditions) were incubated with the indicated concentrations of PNAs for different lengths of time, harvested and washed. The cells (3×10^5) were then analysed with the aid of the CellQuest version 3.3 software (Becton Dickinson), with use of the FL1 channel to detect green fluorescence. The results were expressed as median fold (i.e., the ratio between the median fluorescence intensity values obtained in the presence and in the absence of treatment, respectively). A graphic presentation of data was finally obtained through histograms, showing the number of cells versus the expressed fluorescence intensity. In some experiments we pre-incubated fluorescence-labelled PNAs (2 μM) for 10 min at room temperature in the dark with trypsin/EDTA (0.05 %, 2 and 4 μL) before addition to the cells.

Data set [2] has as its system K562 cells. Description: Cellular uptake (FACS) after pre-incubation with trypsin. Type of data set: cell-based, human. Particulars: PNA 2 μM pre-incubated 10 min at room temperature with trypsin (0.012–0.025 %), then K562 cells in the absence of serum. How it is done: In order to explore the effect of protection against proteases further, pre-incubation of the PNA–peptide conjugate PNA2-Fl and the modified PNAs PNA3-Fl, PNA4-Fl, PNA5-Fl and PNA6-Fl was performed with trypsin (0.012–0.025 %) before allowing interaction with target K562 cells in the absence of serum (see Figure 4). […] The embedding of arginine residues into the PNA backbone thus allows efficient cellular uptake to be achieved without the risk of degradation even by a basic amino-acid-specific peptidase. In contrast, the carrier peptide of PNA2-Fl is to a certain degree an Achilles' heel of the molecule, leading to possible degradation by proteases, an effect worth considering in view of possible developments of PNAs as drugs based on anti-miR activity.
as §1

For “Fl-AEEA-C5LArgC5LArgG5LArgC5LArgT5LArgG5LArgT5LArgC5LArgACACGCACAG-NH2 [PNA4-Fl, fluorescein-labelled PNA4]”, the “change of cellular uptake in the presence of serum” value (“change of cellular uptake” for short) in the data set with K562 cells [1] was “only minor decreases in uptake”. The “effect of trypsin pre-incubation on cellular uptake” value (“effect of trypsin pre-incubation” below) in the data set with K562 cells [2] is on record as “does not affect uptake”.
As to “Fl-AEEA-C2DArgC2DArgG2DArgC2DArgT2DArgG2DArgT2DArgC2DArgACACGCACAG-NH2 [PNA6-Fl, fluorescein-labelled PNA6]”, the “change of cellular uptake” value in the data set with K562 cells [1] is recorded as “no decreases in uptake”. Besides, in the data set on K562 cells [2], the “effect of trypsin pre-incubation” value is recorded as “does not affect uptake”.
For the substance “Fl-AEEA-CC2DArgGC2DArgTG2DArgTC2DArgAC2DArgAC2DArgGC2DArgAC2DArg AG-NH2 [PNA5-Fl, fluorescein-labelled PNA5]”, the “change of cellular uptake” value with K562 cells [1] is “no decreases in uptake”. The “effect of trypsin pre-incubation” value in the data set on K562 cells [2] was “does not affect uptake”.
On to “Flu-AEEA-R8-CCGCTGTCACACGCACAG-NH2 [PNA2-Fl, fluorescein-labelled R8-conjugated PNA2, reference compound]”, for which the “change of cellular uptake” value with K562 cells [1] is given as “decreased uptake”. Also, the “cellular uptake (internalisation) in the absence of serum” value with K562 cells [1] (serum-free, FACS FL1 channel) is given as “efficiently internalised”. Moreover, the “effect of trypsin pre-incubation” value in the data set on K562 cells [2] is listed as “trypsin treatment affects the cellular uptake”.
“Fl-AEEA-CC5LArgGC5LArgTG5LArgTC5LArgAC5LArgAC5LArgGC5LArgAC5LArgAG-NH2 [PNA3-Fl, fluorescein-labelled PNA3]”: in the data set on K562 cells [1], the “change of cellular uptake” value was “only minor decreases in uptake”. Moreover, the “effect of trypsin pre-incubation” value in the data set with K562 cells [2] is “does not affect uptake”.
